Test results published in patent US20140221346A1, “THERAPEUTIC COMPOUNDS” (Gilead Sciences, Inc., priority 2013, published 2014).

Experiments:
[1] = Test B: Cytotoxicity Assay; assay type: cell-based; conditions: human, uninfected MT-4 cells, same protocol as Test A, CellTiter-Glo
Protocol: (§1) For the antiviral assay, 40 μL of 1× test concentration of 3-fold serially diluted compound in culture medium with 10% FBS was added to each well of a 384-well plate (10 concentrations) in quadruplicate. MT-4 cells were next mixed with HIV-IIIb at an m.o.i of 0.003 for 1 hour, after which time 35 μL of virus/cell mixture (2000 cells) was immediately added to each well containing 40 μL of diluted compound. The plates were then incubated at 37° C. for 5 days. After 5 days of incubation, 25 μl of 2× concentrated CellTiter-Glo™ Reagent (catalog #G7571, Promega Biosciences, Inc., Madison, Wis.) was added to each well containing MT-4 cells. Cell lysis was carried out by incubating at room temperature for 10 min and then chemiluminescence was read.
Compound cytotoxicity and the corresponding CC50 values was determined using the same protocol as described in the antiviral assay (Test A) except that uninfected cells were used.

[2] = system: HIV-IIIb; test: Test A: Antiviral Assay in MT4 Cells; assay type: cell-based, HIV-1; conditions: Human immunodeficiency virus 1, IIIB, MT4, 120 h, read-out: % inhibition at 3 μM
Protocol: as §1

With `NC(=O)c1cc(-c2ccc(N)nc2[C@H](Cc2cc(F)cc(F)c2)NC(=O)Cc2c[nH]c3ccc(F)cc23)ccc1F` [Compound 1H, (S)-5-(6-amino-2-(2-(3,5-difluorophenyl)-1-(2-(5-fluoro-1H-indol-3-yl)acetamido)ethyl)pyridin-3-yl)-2-fluorobenzamide] the CC50 at 5 days [1] was 22.1 µM and the inhibition at 3 µM [2] was 98%.
For `NC(=O)c1cc(-c2ccc(N)nc2[C@@H](Cc2cc(F)cc(F)c2)NC(=O)Cc2c[nH]c3ccc(F)cc23)ccc1F` [Compound 2, (R)-5-(6-amino-2-(2-(3,5-difluorophenyl)-1-(2-(5-fluoro-1H-indol-3-yl)acetamido)ethyl)pyridin-3-yl)-2-fluorobenzamide], the CC50 at 5 days [1] was 25.2 µM and the inhibition at 3 µM [2] was 0%.
With `Nc1ccc(-c2ccc(Cl)cc2)c(C(Cc2cc(F)cc(F)c2)NC(=O)Cc2c[nH]c3ccc(F)cc23)n1` (stereo not drawn) [Compound 3, N-(1-(6-amino-3-(4-chlorophenyl)pyridin-2-yl)-2-(3,5-difluorophenyl)ethyl)-2-(5-fluoro-1H-indol-3-yl)acetamide] the CC50 at 5 days [1] was 9.34 µM and the inhibition at 3 µM [2] was 87%.
`NC(=O)c1cccc(-c2ccc(N)nc2C(Cc2cc(F)cc(F)c2)NC(=O)Cc2c[nH]c3ccc(F)cc23)c1` (stereo not drawn) [Compound 4, 3-(6-amino-2-(2-(3,5-difluorophenyl)-1-(2-(5-fluoro-1H-indol-3-yl)acetamido)ethyl)pyridin-3-yl)benzamide] gave a CC50 at 5 days [1] of 13.1 µM and an inhibition at 3 µM [2] of 94%.
`Nc1ccc(-c2cccc(S(N)(=O)=O)c2)c(C(Cc2cc(F)cc(F)c2)NC(=O)Cc2c[nH]c3ccc(F)cc23)n1` (stereo not drawn) [Compound 5, N-(1-(6-amino-3-(3-sulfamoylphenyl)pyridin-2-yl)-2-(3,5-difluorophenyl)ethyl)-2-(5-fluoro-1H-indol-3-yl)acetamide] gave a CC50 at 5 days [1] of 28.7 µM and an inhibition at 3 µM [2] of 87%.
With `Nc1ccc(-c2cccc(CO)c2)c(C(Cc2cc(F)cc(F)c2)NC(=O)Cc2c[nH]c3ccc(F)cc23)n1` (stereo not drawn) [Compound 6, N-(1-(6-amino-3-(3-(hydroxymethyl)phenyl)pyridin-2-yl)-2-(3,5-difluorophenyl)ethyl)-2-(5-fluoro-1H-indol-3-yl)acetamide] the CC50 at 5 days [1] was 14.4 µM and the inhibition at 3 µM [2] was 59%.
Compound `Nc1ccc(-c2ccc(Oc3ccccc3)cc2)c(C(Cc2cc(F)cc(F)c2)NC(=O)Cc2c[nH]c3ccc(F)cc23)n1` (stereo not drawn) [Compound 7, N-(1-(6-amino-3-(4-phenoxyphenyl)pyridin-2-yl)-2-(3,5-difluorophenyl)ethyl)-2-(5-fluoro-1H-indol-3-yl)acetamide] has a CC50 at 5 days [1] of 11.5 µM and an inhibition at 3 µM [2] of 37%.
For `Nc1ccc(-c2cccc(OCC(F)(F)F)c2)c(C(Cc2cc(F)cc(F)c2)NC(=O)Cc2c[nH]c3ccc(F)cc23)n1` (stereo not drawn) [Compound 8, N-(1-(6-amino-3-(3-(2,2,2-trifluoroethoxy)phenyl)pyridin-2-yl)-2-(3,5-difluorophenyl)ethyl)-2-(5-fluoro-1H-indol-3-yl)acetamide], the CC50 at 5 days [1] was 11.7 µM and the inhibition at 3 µM [2] was 50%.
`Nc1ccc(-c2cccc(F)c2)c(C(Cc2cc(F)cc(F)c2)NC(=O)Cc2c[nH]c3ccc(F)cc23)n1` (stereo not drawn) [Compound 9, N-(1-(6-amino-3-(3-fluorophenyl)pyridin-2-yl)-2-(3,5-difluorophenyl)ethyl)-2-(5-fluoro-1H-indol-3-yl)acetamide] gave a CC50 at 5 days [1] of 17.5 µM and an inhibition at 3 µM [2] of 41%.
Work on `COc1cc(-c2ccc(N)nc2C(Cc2cc(F)cc(F)c2)NC(=O)Cc2c[nH]c3ccc(F)cc23)ccn1` (stereo not drawn) [Compound 10, N-(1-(6-amino-2′-methoxy-[3,4′-bipyridin]-2-yl)-2-(3,5-difluorophenyl)ethyl)-2-(5-fluoro-1H-indol-3-yl)acetamide] yielded a CC50 at 5 days [1] of 23.8 µM and an inhibition at 3 µM [2] of 38%.
In the case of `COCCNc1ncc(-c2ccc(F)c(C(N)=O)c2)c([C@@H](Cc2cc(F)cc(F)c2)NC(=O)Cn2nc(C(F)(F)F)c3c2CCCC3)n1` [Compound 11J, (R)-5-(4-(2-(3,5-difluorophenyl)-1-(2-(3-(trifluoromethyl)-4,5,6,7-tetrahydro-1H-indazol-1-yl)acetamido)ethyl)-2-((2-methoxyethyl)amino)pyrimidin-5-yl)-2-fluorobenzamide], the CC50 at 5 days [1] is reported as 16.3 µM and the inhibition at 3 µM [2] is reported as 0%.
For `COCCNc1ncc(-c2ccc(F)c(C(N)=O)c2)c([C@H](Cc2cc(F)cc(F)c2)NC(=O)Cn2nc(C(F)F)c3c2C(F)(F)CCC3(F)F)n1` [Compound 12E, (S)-5-(4-(1-(2-(3-(difluoromethyl)-4,4,7,7-tetrafluoro-4,5,6,7-tetrahydro-1H-indazol-1-yl)acetamido)-2-(3,5-difluorophenyl)ethyl)-2-((2-methoxyethyl)amino)pyrimidin-5-yl)-2-fluorobenzamide], the CC50 at 5 days [1] was 18.2 µM and the inhibition at 3 µM [2] was 86%.
For `NC(=O)c1cc(-c2cnc(NCC3CC3)nc2[C@H](Cc2cc(F)cc(F)c2)NC(=O)Cn2nc(C(F)F)c3c2C(F)(F)CCC3(F)F)ccc1F` [Compound 13B, (S)-5-(2-((cyclopropylmethyl)amino)-4-(1-(2-(3-(difluoromethyl)-4,4,7,7-tetrafluoro-4,5,6,7-tetrahydro-1H-indazol-1-yl)acetamido)-2-(3,5-difluorophenyl)ethyl)pyrimidin-5-yl)-2-fluorobenzamide], the CC50 at 5 days [1] was 7.72 µM and the inhibition at 3 µM [2] was 42%.
`CNc1ncc(-c2ccc(F)c(C(N)=O)c2)c([C@H](Cc2cc(F)cc(F)c2)NC(=O)Cn2nc(C(F)F)c3c2C(F)(F)CCC3(F)F)n1` [Compound 14B, (S)-5-(4-(1-(2-(3-(difluoromethyl)-4,4,7,7-tetrafluoro-4,5,6,7-tetrahydro-1H-indazol-1-yl)acetamido)-2-(3,5-difluorophenyl)ethyl)-2-(methylamino)pyrimidin-5-yl)-2-fluorobenzamide] showed a CC50 at 5 days [1] of 28.6 µM and an inhibition at 3 µM [2] of 89%.
`NC(=O)c1cc(-c2cnc(N3CC4(COC4)C3)nc2[C@H](Cc2cc(F)cc(F)c2)NC(=O)Cn2nc(C(F)F)c3c2C(F)(F)CCC3(F)F)ccc1F` [Compound 15B, (S)-5-(4-(1-(2-(3-(difluoromethyl)-4,4,7,7-tetrafluoro-4,5,6,7-tetrahydro-1H-indazol-1-yl)acetamido)-2-(3,5-difluorophenyl)ethyl)-2-(2-Oxa-6-azaspiro[3.3]heptan-6-yl)pyrimidin-5-yl)-2-fluorobenzamide] showed a CC50 at 5 days [1] of 36.3 µM and an inhibition at 3 µM [2] of 70%.
Work on `CN(C)CCNc1ncc(-c2ccc(F)c(C(N)=O)c2)c([C@H](Cc2cc(F)cc(F)c2)NC(=O)Cn2nc(C(F)F)c3c2C(F)(F)CCC3(F)F)n1` [Compound 16B, (S)-5-(4-(1-(2-(3-(difluoromethyl)-4,4,7,7-tetrafluoro-4,5,6,7-tetrahydro-1H-indazol-1-yl)acetamido)-2-(3,5-difluorophenyl)ethyl)-2-((2-(dimethylamino)ethyl)amino)pyrimidin-5-yl)-2-fluorobenzamide] yielded a CC50 at 5 days [1] of 15.4 µM and an inhibition at 3 µM [2] of 41%.
Compound `COCCOCCNc1ncc(-c2ccc(F)c(C(N)=O)c2)c([C@H](Cc2cc(F)cc(F)c2)NC(=O)Cn2nc(C(F)F)c3c2C(F)(F)CCC3(F)F)n1` [Compound 17B, (S)-5-(4-(1-(2-(3-(difluoromethyl)-4,4,7,7-tetrafluoro-4,5,6,7-tetrahydro-1H-indazol-1-yl)acetamido)-2-(3,5-difluorophenyl)ethyl)-2-((2-(2-methoxyethoxy)ethyl)amino)pyrimidin-5-yl)-2-fluorobenzamide] has a CC50 at 5 days [1] of 48.8 µM and an inhibition at 3 µM [2] of 83%.
`CN(C)c1ncc(-c2ccc(F)c(C(N)=O)c2)c([C@H](Cc2cc(F)cc(F)c2)NC(=O)Cn2nc(C(F)F)c3c2C(F)(F)CCC3(F)F)n1` [Compound 18B, (S)-5-(4-(1-(2-(3-(difluoromethyl)-4,4,7,7-tetrafluoro-4,5,6,7-tetrahydro-1H-indazol-1-yl)acetamido)-2-(3,5-difluorophenyl)ethyl)-2-(dimethylamino)pyrimidin-5-yl)-2-fluorobenzamide] gave a CC50 at 5 days [1] of 38.9 µM and an inhibition at 3 µM [2] of 16%.
With `NC(=O)c1cc(-c2cnc(N3CCC(=O)CC3)nc2[C@H](Cc2cc(F)cc(F)c2)NC(=O)Cn2nc(C(F)F)c3c2C(F)(F)CCC3(F)F)ccc1F` [Compound 19C, (S)-5-(4-(1-(2-(3-(difluoromethyl)-4,4,7,7-tetrafluoro-4,5,6,7-tetrahydro-1H-indazol-1-yl)acetamido)-2-(3,5-difluorophenyl)ethyl)-2-(4-oxopiperidin-1-yl)pyrimidin-5-yl)-2-fluorobenzamide] the CC50 at 5 days [1] was greater than 51.5 µM and the inhibition at 3 µM [2] was 26%.
In the case of `CC(=O)Oc1ccc(-c2ccc(F)c(C(N)=O)c2)c([C@H](Cc2cc(F)cc(F)c2)NC(=O)Cn2nc(C(F)F)c3c2C(F)(F)CCC3(F)F)n1` [Compound 20B, (S)-5-(3-carbamoyl-4-fluorophenyl)-6-(1-(2-(3-(difluoromethyl)-4,4,7,7-tetrafluoro-4,5,6,7-tetrahydro-1H-indazol-1-yl)acetamido)-2-(3,5-difluorophenyl)ethyl)pyridin-2-yl acetate], the CC50 at 5 days [1] is reported as greater than 53.2 µM.
`NC(=O)c1cc(-c2cnc(N3CCC(O)CC3)nc2[C@H](Cc2cc(F)cc(F)c2)NC(=O)Cn2nc(C(F)F)c3c2C(F)(F)CCC3(F)F)ccc1F` [Compound 21, (S)-5-(4-(1-(2-(3-(difluoromethyl)-4,4,7,7-tetrafluoro-4,5,6,7-tetrahydro-1H-indazol-1-yl)acetamido)-2-(3,5-difluorophenyl)ethyl)-2-(4-hydroxypiperidin-1-yl)pyrimidin-5-yl)-2-fluorobenzamide] gave a CC50 at 5 days [1] of 22.5 µM and an inhibition at 3 µM [2] of 41%.
In the case of `NC(=O)c1cc(-c2cnc(NCCN3CCCC3)nc2[C@H](Cc2cc(F)cc(F)c2)NC(=O)Cn2nc(C(F)F)c3c2C(F)(F)CCC3(F)F)ccc1F` [Compound 27], the CC50 at 5 days [1] is reported as 3.5 µM.
